Legend:
[1] = system: Escherichia coli; assay: Inhibition of fenton reaction-induced pBR322 supercoiled DNA damage; format: functional
[2] = system: Escherichia coli; assay: Inhibition of fenton reaction-induced pBR322 supercoiled DNA damage at 1 mM; format: functional

With `C/C(=C/CC[C@@H](C)[C@H]1CC[C@@]2(C)C3=CC[C@H]4C(C)(C)C(=O)CC[C@]4(C)C3=C[C@@H](O[C@@H]3O[C@H](CO)[C@@H](O)[C@H](O)[C@H]3O)[C@]12C)C(=O)O` the Activity [1] was “Dose-dependent effect”.
In the case of `C/C(=C/CC[C@@H](C)[C@H]1CC[C@@]2(C)C3=C(C[C@@H](O[C@@H]4O[C@H](CO)[C@@H](O)[C@H](O)[C@H]4O)[C@]12C)[C@@]1(C)CC[C@@H](O)C(C)(C)[C@@H]1CC3=O)C(=O)O`, the inhibition [2] was 90% and the Activity [1] was “Dose-dependent effect”.
For `C/C(=C/CC[C@@H](C)[C@H]1CC[C@@]2(C)C3=CC[C@H]4C(C)(C)[C@H](O)CC[C@]4(C)C3=C[C@@H](O[C@@H]3O[C@H](CO)[C@@H](O)[C@H](O)[C@H]3O)[C@]12C)C(=O)O`, the Activity [1] was “Dose-dependent effect”.

Reference: ChEMBL document CHEMBL1140678, “New triterpene glucosides, oligoporins A-C, from Oligoporus tephroleucus protect DNA from Fenton reaction” (Bioorg Med Chem Lett, 2007)
